{"source": "patent US9352010B2", "about": "“Treatment of HIV-1 infection and AIDS” (The J. David Gladstone Institutes, priority 2011, dated 2016)", "key": {"[1]": {"system": "AIM2 (Absent in melanoma-2) inflammasome", "settings": "by preventing ASC oligomerisation; cited from earlier work"}, "human caspases": {"system": "human caspases", "settings": "irreversible broad-spectrum; cited from earlier work"}, "[2]": {"system": "other classes of proteases or other enzymes or receptors", "settings": "cited from earlier work"}, "[3]": {"system": "CI/WR (cold ischemia/warm reperfusion)-induced apoptosis and injury in the liver", "settings": "in vivo; cited from earlier work"}, "[4]": {"system": "patients with hepatic impairment", "settings": "phase I; cited from earlier work"}, "[5]": {"system": "patients with chronic Hepatitis C", "settings": "oral or intravenous, 5 mg to 400 mg daily; cited from earlier work"}, "caspase-1": {"target": "caspase-1 (Homo sapiens, UniProt P29466)", "sequence (P29466 120-297 limits assumed)": "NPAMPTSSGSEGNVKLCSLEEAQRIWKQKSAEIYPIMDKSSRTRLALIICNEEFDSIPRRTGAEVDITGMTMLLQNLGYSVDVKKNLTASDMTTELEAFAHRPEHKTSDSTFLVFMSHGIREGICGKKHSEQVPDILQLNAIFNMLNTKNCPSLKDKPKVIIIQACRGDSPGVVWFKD", "sequence (P29466 317-404 limits assumed)": "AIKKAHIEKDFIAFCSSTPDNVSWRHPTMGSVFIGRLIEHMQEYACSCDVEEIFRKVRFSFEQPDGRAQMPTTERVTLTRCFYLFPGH", "settings": "cited from earlier work"}, "caspase-4": {"target": "caspase-4 (Homo sapiens, UniProt P49662)", "sequence (P49662 81-270 limits assumed)": "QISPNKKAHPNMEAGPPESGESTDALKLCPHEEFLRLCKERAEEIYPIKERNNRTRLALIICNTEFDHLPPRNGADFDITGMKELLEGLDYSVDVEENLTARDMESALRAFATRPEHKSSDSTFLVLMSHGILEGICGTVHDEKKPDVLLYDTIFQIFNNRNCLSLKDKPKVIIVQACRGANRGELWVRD", "sequence (P49662 290-377 limits assumed)": "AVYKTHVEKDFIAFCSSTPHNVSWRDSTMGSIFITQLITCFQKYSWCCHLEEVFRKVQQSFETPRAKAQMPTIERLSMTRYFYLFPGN", "settings": "read-out: Ki against caspase-4; cited from earlier work"}, "[6]": {"system": "transient ischemia in rat", "settings": "cited from earlier work"}, "human PBMCs": {"system": "human PBMCs", "settings": "cited from earlier work"}, "[7]": {"system": "murine models of inflammatory disease", "settings": "cited from earlier work"}, "CFSE-labeled CD4 T-cells": {"system": "CFSE-labeled CD4 T-cells", "assay_type": "cell-based, human", "method": "(A) Experimental strategy to assess indirect cell killing in HIV-1-infected human lymphoid cultures. Fresh human tonsil tissue from a single donor is processed into HLAC, and then separated into two fractions. One fraction is challenged with HIV-1 and cultured for 6 days, allowing viral spread. On day 5, the uninfected fraction is treated with AZT (5 μM) and labeled with CFSE (1 μM). On day 6, the infected and CFSE-labeled (i.e., uninfected) cultures are mixed and co-cultured in the presence of AZT. […] After 6 days of co-culturing, the number of viable CFSE-positive cells is determined by flow cytometry. (B) Flow cytometry analysis of the mixed HLACs. Indirect killing is determined by gating on live CFSE-positive cells in the mixed cultures. Effector cells are either infected or uninfected cells. […] CFSE-labeled cells mixed with uninfected or infected cells were cultured in the presence of 5 μM AZT alone or together with 250 nM AMD3100. Data represent live CFSE-positive cells 6 days after co-culture with infected or uninfected effector cells. […] The absolute numbers of viable CFSE-positive CD4 and CD8 T-cells and B cells were determined. Percentages are normalized to the number of viable CFSE-positive cells co-cultured with uninfected cells in the presence of AZT, as depicted by (*). Error bars represent standard deviations of three samples from the same donor. […] See also FIG. 3.\nHuman tonsil or splenic tissues from routine tonsillectomies were obtained from the National Disease Research Interchange and the Cooperative Human Tissue Network and processed as previously described (Jekle et al., 2003, J Virol 77:5846-5854). In brief, tonsils or spleen were minced, passed through a 40-μm cell strainer, and cultured in 96-well U-bottomed polystyrene plates (2×10^6 cells/well) in medium (200 μl/well) consisting of RPMI 1640 supplemented with 15% heat-inactivated fetal bovine serum, 100 μg/ml gentamicin, 200 μg/ml ampicillin, 1 mM sodium pyruvate, 1% nonessential amino acids (Mediatech), 2 mM L-glutamine, and 1% fungizone (Invitrogen). All HIV-1 infections were carried out with 20-50 ng of HIV-1 p24^gag. Cells were incubated with the virus for 12-16 h, washed extensively, and supplemented with fresh medium. After day 5, infections were monitored by measuring p24gag levels in the culture medium using a FLAQ assay (Hayden et al., 2003, AIDS 17:629-631). Infected and uninfected cultures were manipulated as described for individual experiments. In “indirect killing” assays, unless otherwise stated, drugs were used at the following concentrations: 5 μM AZT; 250 nM AMD3100; 10 μg/ml T20; 100 nM Efavirenz; 1 μM Nevirapine; 30 μM Raltegravir; 60 μM 118-D-24; 5 μM Amprenavir; 5 μM Saquinavir; 5 μM Indinavir. CFSE-labeled cells were activated with PHA (5 μg/ml) and IL-2 (20 ng/ml) 2 days before mixing with effector cells.\nUninfected cells (5×10^6/ml) were labeled with 1 μM CFSE (Molecular Probes C1157), treated with 5 μM AZT for 24 h, and co-cultured with effector cells. CFSE readily diffuses into cells, where intracellular esterases cleave the acetate groups, converting it to a fluorescent, membrane-impermeable dye."}, "[8]": {"system": "CD4 T cells in HIV-1 (NL4-3)-infected HLACs", "experiment": "CD4 T-cell death in HIV-1-infected HLACs, viable CD4 T cells by flow cytometry", "assay_type": "cell-based, human", "settings": "3 days", "method": "HLACs were left uninfected or infected with HIV-1 (NL4-3 clone) in the presence of AZT, efavirenz, AMD3100, or caspase inhibitors (20 μM each), as indicated in FIG. 16. After 3 days, the percentages of viable CD4 T cells in the cultures were determined by flow cytometry.\nHLACs were left uninfected or infected with NL4-3 in the presence of no drugs, efavirenz, AMD3100, or caspase inhibitors (50 μM or 100 μM), as indicated in FIG. 16B. After 3 days, the percentages of viable CD4 T cells in the cultures were determined by flow cytometry."}, "[9]": {"system": "lactate dehydrogenase (LDH) release", "experiment": "LDH release from HIV-1-infected HLACs (pyroptosis)", "assay_type": "cell-based, human", "settings": "caspase inhibitors 50 μM or 100 μM, 3 days, FIG. 16C", "method": "Caspase-1 activation can lead to a highly inflammatory form of cell death called pyroptosis. To gain insight into how CD4 T cells die, it was determined whether HIV infection in CD4 T cells induce pyroptosis cell death, as measured by lactate dehydrogenase (LDH) release. HLACs were left uninfected or infected with NL4-3 in the presence of no drugs, efavirenz, AMD3100, or caspase inhibitors (50 μM or 100 μM), as indicated in FIG. 16C. After 3 days, the supernatants were assayed for the cytosolic enzyme lactate dehydrogenase (LDH) and the LDH released by dying cells was quantified."}, "[10]": {"system": "CD4 T cells in HIV-1 (NL4-3)-infected HLACs", "experiment": "CD4 T-cell death in HIV-1-infected HLACs, viable CD4 T cells by flow cytometry", "assay_type": "cell-based, human", "settings": "FIG. 15, 4 different donors"}, "IL-1β": {"system": "IL-1β", "experiment": "Release of 17-kDa IL-1β from isolated tonsillar CD4 T-cells (ionophore stimulus)", "assay_type": "cell-based, human", "settings": "nigericin 10 μM", "method": "For stimulating the processing and secretion of IL-1, CD4 T-cells were isolated from HLACs by positive selection and treated with 0.5 μM PMA ([…], Calbiochem Cat. #524400) for 6 hours at 37° C. PMA induces large intracellular stores of the 35 kDa pro-IL-1β. Cells were then washed with PBS and treated with 10 μM nigericin (Sigma, Cat. # N7143) overnight at 37° C. The potassium ionophore nigericin mediates an elecroneutral exchange of intracellular K^+ ions for extracellular protons, providing a second inflammatory stimulus, which results in the maturation and release of the bioactive 17 kDa IL-1β(Perregaux et al., 1992, J Immunol 149:1294-1303; Perregaux and Gabel, 1994, J Biol Chem 269:15195-15203).\nIsolated tonsillar CD4 T-cells were treated overnight with nigericin (10 μM) to provide a second inflammatory stimulus, resulting in maturation and release of bioactive 17-kDa IL-1β. Supernatants from the cell cultures were subjected to SDS-PAGE and immunoblotting. 17-kDa IL-1β was released after treatment with nigericin, but not with calcium ionophore A23187 or the nonspecific cation ionophore monensin. Thus, while these cells are primed, they must receive the appropriate proinflammatory signal for pro-IL-1β processing and release. […]"}}, "note": "Residues, ends and D or L forms follow the SMILES beside them. *: point of attachment. Cbz = O=C(OCc1ccccc1)*; CH2F = FC*", "data": [{"compound": "CC(C)(O)c1coc(S(=O)(=O)NC(=O)Nc2c3c(cc4c2CCC4)CCC3)c1", "note": "[CRID3]", "values": [{"measurement": "AIM2 inflammasome", "setting": "[1]", "result": "inhibited"}]}, {"compound": "C[C@H](NC(=O)C(=O)Nc1ccccc1C(C)(C)C)C(=O)N[C@@H](CC(=O)O)C(=O)COc1c(F)c(F)cc(F)c1F", "note": "[IDN-6556]", "values": [{"measurement": "caspase inhibition spectrum", "setting": "human caspases", "result": "activity against all tested human caspases"}, {"measurement": "inhibition of other classes of proteases or other enzymes or receptors", "setting": "[2]", "result": "no inhibition"}, {"measurement": "CI/WR-induced apoptosis and injury in the liver and other organs", "setting": "[3]", "result": "reduced CI/WR (cold ischemia/warm reperfusion)-induced apoptosis and injury"}, {"measurement": "tolerability", "setting": "[4]", "result": "well tolerated"}, {"measurement": "efficacy (aminotransferase activity)", "setting": "[5]", "result": "efficacious"}, {"measurement": "tolerability", "setting": "[5]", "result": "well tolerated"}]}, {"compound": "O=C[C@H](CC(=O)O)NC(=O)[C@@H]1CCCN2C(=O)CC[C@H](NC(=O)c3nccc4ccccc34)C(=O)N12", "note": "[VRT-018858]", "values": [{"measurement": "selectivity for caspase 1 and caspase-4 against other caspases", "setting": "caspase-1", "result": "> 100", "unit": "fold"}, {"measurement": "Ki", "setting": "caspase-1; read-out: Ki against caspase-1", "result": 1.3, "unit": "nM"}, {"measurement": "Ki", "setting": "caspase-4", "result": 0.4, "unit": "nM"}, {"measurement": "brain damage induced by transient ischemia", "setting": "[6]", "result": "markedly reduced brain damage"}]}, {"compound": "CCO[C@@H]1OC(=O)C[C@@H]1NC(=O)[C@@H]1CCCN1C(=O)[C@@H](NC(=O)c1ccc(N)c(Cl)c1)C(C)(C)C", "note": "[VX-765, (S)-1-((S)-2-{[1-(4-Amino-3-chloro-phenyl)-methanoyl]-amino}-3,3-dimethyl-butanoyl)-pyrrolidine-2-carboxylic acid ((2R,3S)-2-ethoxy-5-oxo-tetrahydro-furan-3-yl)-amide]", "values": [{"measurement": "IL-1β secretion", "setting": "human PBMCs; Stack et al.", "result": "blocked IL-1β secretion"}, {"measurement": "IC50", "setting": "human PBMCs; human PBMCs, read-out: IC50, release of LPS-induced IL-1β and IL-18", "result": "~700", "unit": "nM"}, {"measurement": "inflammatory response", "setting": "[7]", "result": "reduces inflammatory response"}]}, {"compound": "COC(=O)CC[C@H](NC(=O)[C@H](CC(=O)OC)NC(=O)OCc1ccccc1)C(=O)N[C@H](C(=O)N[C@@H](CC(=O)OC)C(=O)CF)C(C)C", "note": "[Z-DEVD-FMK]", "values": [{"measurement": "reduction of cell death", "setting": "CFSE-labeled CD4 T-cells; 20 μM, specific inhibition of caspase-3", "result": 50, "unit": "%"}, {"measurement": "CD4 T-cell population whose death was prevented", "setting": "[8]; 20 μM, FIG. 16A", "result": 50, "unit": "%"}, {"measurement": "CD4 T-cell death in HIV-infected cultures", "setting": "[8]; caspase inhibitors 50 μM or 100 μM, FIG. 16B", "result": "did not prevent the death"}, {"measurement": "LDH release from HIV-1 infected cells", "setting": "[9]", "result": "did not prevent the LDH release"}, {"measurement": "death of infected CD4 T-cells", "setting": "[10]", "result": "also inhibits death of infected CD4 T cells, however, not as efficient as caspase-1 inhibitors"}]}, {"compound": "COC(=O)C[C@H](NC(=O)[C@H](C)NC(=O)[C@@H](NC(=O)OCc1ccccc1)C(C)C)C(=O)CF", "note": "[Z-VAD-FMK, Z-Val-Ala-Asp(OMe)-Fluoro methyl ester] (Cbz-Val-Ala-Asp(OMe)-CH2F)", "values": [{"measurement": "death of abortively infected CD4 T-cells with caspase inhibitors", "setting": "CFSE-labeled CD4 T-cells; 20 μM caspase inhibitor, AZT 5 μM", "result": "completely prevented"}, {"measurement": "nigericin-induced IL-1β release after pre-treatment with caspase inhibitor", "setting": "IL-1β", "result": "blocked"}, {"measurement": "death of infected CD4 T-cells", "setting": "[10]", "result": "inhibit the death of infected CD4 T-cells"}]}]}
